According to US20080200405A1, “Drug Resistance Reversal In Neoplastic Disease” (priority 2007, published 2008):

Experiments:
[1] = Single-dose 10-minute intravenous infusion toxicokinetics of OT-551; assay type: in vivo, Sprague-Dawley rats
Protocol: Blood for toxicokinetic evaluations was collected at pre-determined time points during and after the infusion. Plasma samples were analyzed for OT-551 and TP-H using validated LC/MS/MS assays. Descriptive toxicokinetic parameters were determined by standard model independent methods (Gilbaldi and Perrier, 1982) based on the plasma concentration-time data. […] The plasma concentrations were rounded to the nearest tenth of a ng/mL before the calculations. […] Nominal time points were used for all calculations. Since there was no apparent gender difference in the plasma concentrations of OT-551 and TP-H, the data for male and female rats at each sampling time point were pooled.

[2] = In vitro stability of OT-551 in rat plasma; assay type: in vitro ADME
Protocol: (§1) The active metabolite of OT-551 (Cyclopropanecarboxylic acid 1-hydroxy-2,2,6,6-tetramethyl-piperidin-4-yl ester) is TP-H. The objective of this analysis was to determine the in vitro half-life of OT-551 in rat, rabbit, dog, and human plasma under standardized incubation conditions.
(§2) OT-551 was incubated with pooled rat, rabbit, dog, and human plasma for various times under standardized incubation conditions. Pre-labeled tubes containing pooled plasma from rats, rabbits, dogs, and humans were pre-incubated in a shaking 37° C. water bath. A OT-551 solution was added to the tubes at a final concentration of 1000 ng/mL. Time zero samples (n=5) were immediately removed and transferred into tubes containing a stabilizer solution (DTPA, acetylcysteine and ascorbic acid), the LC/MS/MS assay internal standard and methanol. […] The tubes were vortexed, placed on ice, followed by centrifugation. One hundred-μL aliquots of the supernatant were transferred into HPLC sample vials. Additional tubes (n=5 at each time point) were incubated for 5, 10, 20, 30, 60, 120, and 240 minutes at 37° C. and thereafter processed. The amount of OT-551 and TP-H in each incubated sample was quantified using validated LC/MS/MS assays.

[3] = In vitro stability of OT-551 in rabbit plasma; assay type: in vitro ADME
Protocol: as §1, §2

[4] = system: TNFα; experiment: Measurement of LPS Induced-TNFα in THP-1 Cells; assay type: cell-based, human; settings: compound 10 uM; 5 ng/mL LPS
[5] = In vitro stability of OT-551 in dog plasma; assay type: in vitro ADME
Protocol: as §1, §2

[6] = system: bFGF-induced angiogenesis in the CAM model; experiment: bFGF (FGF2)-stimulated CAM model; assay type: in vivo, chicken; settings: for Mean % Inhibition ± SD / Mean Branch points ± SEM: bFGF 1 μg/ml
[7] = Sprague-Dawley rats, 10-minute iv infusion of OT-551 10 mg/kg

For `CC1(C)CC(O)CC(C)(C)N1O` [TEMPOL-H], the “peak plasma concentration of TP-H at the end of the OT-551 infusion” value (“peak plasma concentration of TP-H” below) ([1]; 10 mg/kg OT-551) was 2481.7 ng/mL, the “plasma levels of TP-H at 4 hr post infusion” value ([1]; 10 mg/kg OT-551) was “still quantifiable” and the “terminal elimination half-life of TP-H” value ([1]; 10 mg/kg OT-551) was 24 min. The “peak plasma concentration of TP-H” value ([1]; 30 mg/kg OT-551) was 8337.7 ng/mL, the “peak plasma concentration of TP-H” value ([1]; 100 mg/kg OT-551) was 29020.8 ng/mL and the “peak plasma concentration of TP-H” value ([1]; 200 mg/kg OT-551) was 60802.1 ng/mL. The “levels of TP-H four hours after terminating the infusion relative to concentrations immediately after terminating the infusion” value ([1]; 30, 100 and 200 mg/kg OT-551) was “less than 1%”, the “Mean ± SD Plasma Concentrations of TP-H” value ([1]; OT-551 10 mg/kg iv infusion, 1.167 hr) was 204.7 ± 85.6 ng/mL and the “Mean ± SD Plasma Concentrations of TP-H” value ([1]; OT-551 10 mg/kg iv infusion, 2.167 hr) was 25.2 ± 24.0 ng/mL. For the same molecule, the “Mean ± SD Plasma Concentrations of TP-H” value ([1]; OT-551 10 mg/kg iv infusion, 4.167 hr) was 4.2 ± 10.3 ng/mL, the “Mean ± SD Plasma Concentrations of TP-H” value ([1]; OT-551 30 mg/kg iv infusion, 4.167 hr, n = 5) was 53.8 ± 29.7 ng/mL and the “Mean ± SD Plasma Concentrations of TP-H” value ([1]; OT-551 100 mg/kg iv infusion, 4.167 hr) was 160.0 ± 97.5 ng/mL. For the same molecule, the “Mean ± SD Plasma Concentrations of TP-H” value ([1]; OT-551 200 mg/kg iv infusion, 4.167 hr) was 524.5 ± 237.0 ng/mL, the “AUC(0-4.167 hr) of TP-H” value [1, 7] was 1694.8 ng·h/mL and the “Cmax of TP-H” value [1, 7] was 2481.7 ng/mL. For the same molecule, the “T½ of TP-H” value ([1]; Sprague-Dawley rats, 10-minute iv infusion of OT-551 10 mg/kg, elimination half-life) was 24 min, the “AUC of TP-H” value ([1]; Sprague-Dawley rats, 10-minute iv infusion of OT-551 10 mg/kg, to time infinity) was 1697.5 ng·h/mL and the “Cmax of TP-H” value ([1]; Sprague-Dawley rats, 10-minute iv infusion of OT-551 30 mg/kg) was 8337.7 ng/mL. The “Cmax of TP-H” value ([1]; Sprague-Dawley rats, 10-minute iv infusion of OT-551 100 mg/kg) was 29020.8 ng/mL, the “Cmax of TP-H” value ([1]; Sprague-Dawley rats, 10-minute iv infusion of OT-551 200 mg/kg) was 60802.2 ng/mL and the “Mean ± SD Plasma Concentrations of TP-H” value ([1]; Sprague-Dawley rats, single 10-minute iv infusion of OT-551 10 mg/kg, 0.167 hr from start of infusion) was 2481.7 ± 325.8 ng/mL. For the same molecule, the “Mean ± SD Plasma Concentrations of TP-H” value ([1]; Sprague-Dawley rats, single 10-minute iv infusion of OT-551 30 mg/kg, 0.167 hr, n = 5) was 8337.7 ± 2099.5 ng/mL, the “Mean ± SD Plasma Concentrations of TP-H” value ([1]; Sprague-Dawley rats, single 10-minute iv infusion of OT-551 100 mg/kg, 0.167 hr) was 29020.8 ± 11713.7 ng/mL and the “Mean ± SD Plasma Concentrations of TP-H” value ([1]; Sprague-Dawley rats, single 10-minute iv infusion of OT-551 200 mg/kg, 0.167 hr) was 60802.2 ± 8922.5 ng/mL. For the same molecule, the “Tmax of TP-H” value ([1]; rat, in vivo, iv) was 10 min, the “Concentrations (ng/mL) of TP-H in Rat Plasma” value (from here on “Concentrations … in Rat Plasma”) ([2]; OT-551 incubation time 0 min) was 10.23 ± 1.59 ng/mL and the “Concentrations … in Rat Plasma” value ([2]; OT-551 incubation time 5 min) was 30.47 ± 1.65 ng/mL. The “Concentrations … in Rat Plasma” value ([2]; OT-551 incubation time 10 min) was 50.91 ± 2.11 ng/mL, the “Concentrations … in Rat Plasma” value ([2]; OT-551 incubation time 20 min) was 86.30 ± 3.30 ng/mL and the “Concentrations … in Rat Plasma” value ([2]; OT-551 incubation time 30 min) was 119.63 ± 7.08 ng/mL. The “Concentrations … in Rat Plasma” value ([2]; OT-551 incubation time 60 min) was 201.94 ± 4.19 ng/mL, the “Concentrations … in Rat Plasma” value ([2]; OT-551 incubation time 120 min) was 304.66 ± 7.27 ng/mL and the “Concentrations … in Rat Plasma” value ([2]; OT-551 incubation time 240 min) was 362.66 ± 7.50 ng/mL. The “Concentrations (ng/mL) of TP-H in Rabbit Plasma” value ([3]; OT-551 incubation time 0 min) was 270.55 ± 35.45 ng/mL, the “Concentrations (ng/mL) of TP-H in Rabbit Plasma” value ([3]; OT-551 incubation time 5 min) was 587.17 ± 21.99 ng/mL and the “Concentrations (ng/mL) of TP-H in Rabbit Plasma” value ([3]; OT-551 incubation time 10 min) was 604.21 ± 21.99 ng/mL. For the same molecule, the “Concentrations (ng/mL) of TP-H in Rabbit Plasma” value ([3]; OT-551 incubation time 20 min) was 590.06 ± 40.97 ng/mL, the “Concentrations (ng/mL) of TP-H in Rabbit Plasma” value ([3]; OT-551 incubation time 30 min) was 533.01 ± 117.40 ng/mL and the “Concentrations (ng/mL) of TP-H in Rabbit Plasma” value ([3]; OT-551 incubation time 60 min) was 569.19 ± 32.96 ng/mL. For the same molecule, the “Concentrations (ng/mL) of TP-H in Rabbit Plasma” value ([3]; OT-551 incubation time 120 min) was 525.63 ± 10.31 ng/mL, the “Concentrations (ng/mL) of TP-H in Rabbit Plasma” value ([3]; OT-551 incubation time 240 min) was 477.54 ± 40.95 ng/mL and the “Mean Percent Inhibition of TNF-alpha using 5 ng/mL LPS” value [4] was 74 ± 8%. For the same molecule, the “Concentrations (ng/mL) of TP-H in Dog Plasma” value (“Concentrations … in Dog Plasma” below) ([5]; OT-551 incubation time 0 min) was 0.00 ± 0.00 ng/mL, the “Concentrations … in Dog Plasma” value ([5]; OT-551 incubation time 5 min) was 5.85 ± 0.73 ng/mL and the “Concentrations … in Dog Plasma” value ([5]; OT-551 incubation time 10 min) was 8.77 ± 0.65 ng/mL. For the same molecule, the “Concentrations … in Dog Plasma” value ([5]; OT-551 incubation time 20 min) was 12.79 ± 0.74 ng/mL, the “Concentrations … in Dog Plasma” value ([5]; OT-551 incubation time 30 min) was 16.22 ± 0.67 ng/mL and the “Concentrations … in Dog Plasma” value ([5]; OT-551 incubation time 60 min) was 25.68 ± 1.04 ng/mL. For the same molecule, the “Concentrations … in Dog Plasma” value ([5]; OT-551 incubation time 120 min) was 39.31 ± 1.09 ng/mL, the “Concentrations … in Dog Plasma” value ([5]; OT-551 incubation time 240 min) was 53.92 ± 1.68 ng/mL and the “inhibition of bFGF-induced angiogenesis” value ([6]; 100-400 μg) was “dose-dependent inhibition”. For the same molecule, the “Mean % Inhibition ± SD” value ([6]; 100 μg) was 20 ± 12%, the “Mean Branch points ± SEM” value ([6]; 100 μg) was 172 ± 12.4 and the “Mean % Inhibition ± SD” value ([6]; 200 μg) was 45.3 ± 7.5 %. The “Mean Branch points ± SEM” value ([6]; 200 μg) was 147.2 ± 7.5, the “Mean % Inhibition ± SD” value ([6]; 400 μg) was 58.7 ± 10.9 % and the “Mean Branch points ± SEM” value ([6]; 400 μg) was 133.8 ± 10.8. The “Mean % Inhibition ± SD” value ([6]; 800 μg) was 28.1 ± 6.8 % and the “Mean Branch points ± SEM” value ([6]; 800 μg) was 164.2 ± 6.7.
